According to article PMC10154330, “Machine learning-driven multifunctional peptide engineering for sustained ocular drug delivery” (Nature Communications, 2023):
pKd: −log10 of the molar value.

Test system: melanin nanoparticles (mNPs)
Assay: In vitro melanin binding assay (binding capacity and Kd, RED device, HPLC)
Parameters: species or system Sepia officinalis
Conditions: binding capacity and dissociation constant of ocular drugs, melanin
Procedure: The solutions (400 µL) were then mixed thoroughly with 400 µL of 1 mg/mL mNPs in pH 6.5 PBS solution and transferred to the inner reservoir of the rapid equilibrium dialysis (RED) device inserts (8 K MWCO). The outer reservoir was filled with 800 µL of pH 6.5 PBS solution. The samples were incubated on an orbital shaker with temperature control at 37 °C and 300 rpm for 48 h (n = 3). The solutions from outer reservoir (free drug) were than collected and transferred to an autosampler vial for HPLC analysis (Prominence LC2030, Shimadzu, Columbia, MD) with photodiode-array detection (PDA) system. […] The amount of bound drug was used to calculate the binding capacity (mol drug/mg melanin) and the dissociation constant (Kd) as previously described[20],[34].

Binding Capacity (mole/mg melanin)	pKd	Compound
2.69E-08	3.31	COCCc1ccc(OCC(O)CNC(C)C)cc1 (stereo not drawn) [Metoprolol]
3.9e-8	3.92	CC(C)(C)NC[C@H](O)COc1nsnc1N1CCOCC1 [Timolol]
2.61e-6	5.67	CCNCCNC(=O)c1c(C)[nH]c(/C=C2\C(=O)Nc3ccc(F)cc32)c1C [N-Desethyl Sunitinib]
3.8e-7	4.12	CCN(CC)CCCC(C)Nc1ccnc2cc(Cl)ccc12 (stereo not drawn) [Chloroquine]
2.24E-08	4.90	CC1(C)O[C@@H]2C[C@H]3[C@@H]4CCC5=CC(=O)C=C[C@]5(C)[C@@]4(F)[C@@H](O)C[C@]3(C)[C@]2(C(=O)CO)O1 [Triamcinolone Acetonide]
2.07e-7	3.09	CC12CC3CC(C)(C1)CC(N)(C3)C2 [Memantine]
